Data from patent publication US11345895B2, “Induction of arterial-type of hemogenic endothelium (AHE) and enhancement of T cell production from PSCs through overexpression of ETS factors or modulating MAPK/ERK signalling pathways” (Wisconsin Alumni Research Foundation, priority 2016, dated 2022).

How the values were obtained:
Format in all cases: cell-based, human
[1] = test system: NOTCH signaling in iETS1 hESC cultures; test: Hematopoiesis following ETS1 upregulation in the presence of NOTCH signaling blockade; settings: DOX-treated iETS1 hESC cultures; DAPT 10 μM, DLL4 blocking antibody 10 μg/ml
Description: To confirm the role of NOTCH activation in promoting definitive hematopoiesis by ETS1, we evaluated hematopoiesis following ETS1 upregulation in the presence of NOTCH signaling inhibitor DAPT, and DLL4 neutralizing antibodies (FIG. 4E).
(§1) HB-CFCs were detected as described previously^54. HB-CFCs were detected using the semisolid colony-forming serum-free medium (CF-SFM) containing 40% ES-Cult M3120 methylcellulose (2.5% solution in IMDM, Stem Cell Technologies), 25% StemSpan™ serum-free expansion medium (SFEM, Stem Cell Technologies), 25% human endothelial serum-free medium (ESFM, Invitrogen), 10% BIT 9500 supplement (Stem Cell Technologies), GlutaMAX™ (1/100 dilution, Invitrogen), Ex-Cyte™ (1/1000 dilution, Millipore), 100 μM MTG, 50 μg/ml ascorbic acid and 20 ng/ml FGF (Peprotech). Hematopoietic CFCs were detected using serum containing H4435 MethoCult with FGF, SCF, IL-3, IL-6 and EPO (Stem Cell Technologies).
Cells were analyzed using MACSQuant Analyzer (Miltenyi Biotec) and FlowJo software (Tree star).
Notch signaling was blocked by DAPT (γ-secretase inhibitor/GSI, 10 μM, Cayman Chemicals) or DLL4 blocking antibody (10 μg/ml, Creative BioLabs)

[2] = test system: DLL4+ arterial type HE from hPSCs; test: Arterial HE specification in hESC differentiation cultures with modulation of MAPK/ERK signaling (flow cytometry); settings: differentiation cultures treated on days 3 through day 6; LY294002 2 μM, U0126 1 μM
Protocol: (§2) To determine whether modulating MAPK/ERK signaling affects arterial specification of HE from hPSCs, we treated differentiation cultures on days 3 through day 6 with PI3K inhibitor LY294002, or MEK1 and MEK2 inhibitor U0126 (FIG. 6A).
H1 hESC line, the iETS1 H1 hESC line and the tdTomato H1 hESCs line were maintained on Matrigel™ in mTeSR1™ medium. Cells were passaged every 3-4 days using 0.5 mM EDTA in PBS. The hESC lines were differentiated on ColIV coated plate as previously described in details^26.
(§3) MAPK/ERK pathway was activated using LY294002 (2 μM, Cayman Chemicals) and was inhibited using U0126 (1 μM, Cayman Chemicals)

[3] = test system: CD235a/CD41a-CD45+ hematopoietic progenitors from hESCs; test: Hematopoietic progenitor production and hematopoietic CFC assay after modulation of MAPK/ERK signaling; settings: ERK pathway activated (LY294002 2 μM) or inhibited (U0126 1 μM), days 3-6
Protocol: as §2, §3

[4] = test system: T lymphoid potential of hESC cultures; test: T cell differentiation on OP9-DLL4 after LY294002 or U0126 treatment; settings: cultures treated with LY294002 2 μM or U0126 1 μM
Protocol: as §2
T cell differentiation of hESC-derived hematopoietic precursors was performed on the OP9−DLL4 in T cell differentiated medium consisting of α-MEM (Gibco) supplemented with 20% FBS (Hyclone), 5 ng/ml FLT3L, 5 ng/ml IL-7 and 10 ng/ml SCF (all from PeproTech) as described previously^26. […] Cultures were fed with complete media changes weekly.
as §3

[5] = test system: iETS1-hESCs (H1, DOX-inducible ETS1 transgene); test: Primitive and definitive hematopoiesis from DOX-treated iETS1-hESCs (HB-CFC, HE, T cell, RBC cultures); settings: CD43+ cells subcultured on OP9-DLL4
Protocol: To define which type of hematopoiesis is affected by ETS1 overexpression, we evaluated the effect of DOX treatment on i) hemangioblast (HB) CFCs that reflect the primitive wave of hematopoiesis^37, 38 and ii) on T lymphocytes and β-hemoglobin-producing red blood cells that reflect definitive hematopoiesis (FIG. 3A)^37, 39. […] This effect was more profound when cultures were treated with DOX from day 0 through day 3 to ensure maximum ETS1 overexpression on day 3 (FIG. 3B and FIGS. 9B-9C). […] To determine the effect of ETS1 upregulation on T cell potential, we collected CD43^+ cells from DOX+ and DOX− cultures and subcultured on OP9−DLL4 stromal cells. […]
as §1, with “Technologies). […]” for “Technologies).”

C[C@H](NC(=O)Cc1cc(F)cc(F)c1)C(=O)N[C@H](C(=O)OC(C)(C)C)c1ccccc1 [DAPT]
effect of ETS1 upregulation on hematopoiesis (blood production and CFC potential) [1]: abrogated effect

N#CC(=C(/N)Sc1ccccc1N)/C(C#N)=C(\N)Sc1ccccc1N [U0126]
production of DLL4+ arterial type HE, including the DLL4+CXCR4+ fraction [2]: almost completely abrogated formation
production of multipotent CD235a/CD41a-CD45+ hematopoietic progenitors and CFC potential [3]: abrogated production
T lymphoid potential [4]: entirely abrogated

C[C@H]1c2cccc(O)c2C(=O)C2=C(O)[C@]3(O)C(=O)C(C(N)=O)=C(O)[C@@H](N(C)C)[C@@H]3[C@@H](O)[C@@H]21 [DOX, doxycycline]
number of T lymphoid cells per 10^4 of CD43 cells, DOX+ versus DOX- cultures [5]: ~8 fold
